Source: patent US12390437B2, “Itaconic acid derivatives and uses thereof intreating an inflammatory disease or a disease associated with an undesirable immune response” (Sitryx Therapeutics Limited, priority 2019, dated 2025)

System: IL-1β cytokine output from THP-1s
Assay: THP-1 AlphaLISA IL-1β cytokine assay
Type: cell-based, human
Settings: Homo sapiens, THP-1, PMA-differentiated THP-1 cells, LPS 24 hr then Nigericin 1 hour; read-out: IL-1β (IC50)
Summary of the method: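 PMA-differentiated (72 h) THP-1 cells pretreated 30 min with compound, LPS-stimulated 24 h, then nigericin 1 h at 37 °C. Supernatant IL-1β and IL-6 by AlphaLISA; % inhibition normalised to ±LPS controls, IC50 from concentration-response curves.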

SMILES | IC50
C=C(CC(=O)OC1C(C)(C)CC1(C)C)C(=O)OCC(=O)O [Example 169, 2-((2-methylene-4-oxo-4-(2,2,4,4-tetramethylcyclobutoxy)butanoyl)oxy) acetic acid] | 15.6 µM
C=C(CC(=O)O[C@H](C)CCCCCC)C(=O)OCc1nn[nH]n1 [Example 161, (R)-1-((2H-tetrazol-5-yl)methyl) 4-(octan-2-yl) 2-methylenesuccinate] | 6.8 µM

System: not listed separately
Assay: Mouse pharmacokinetic study, oral administration
Type: in vivo
Settings: male, C57BL/6, mouse, plasma, po, 100 mg/kg, plasma, male C57BL/6 mice, oral gavage 100 mg/kg, 0.083 h; read-out: Parent compound concentrations following oral administration, Time 0.083 h
Description: Pharmacokinetic studies were carried out in 6-8-week-old male C57BL/6 mice having free access to food and water. Intravenous dosing was conducted at 10 mg/kg (5 mL/kg; vehicle: 10% DMSO-90% (25% HP-13-CD in water)) via tail vein injection, with sampling at 3 min, 8 min, 15 min, 30 min, 1, 2, 4, 6 and 8 hours, i.e., 9 time points in total (N=3/time point), using semi-serial bleeding for plasma. Oral compound administration, via gavage, was carried out at 100 mg/kg (10 mL/kg; vehicle: 5% DMSO-95% (0.5% HPMC+0.1% Tween 80 in water)), with sampling at 5 min, 15 min, 30 min, 1, 2, 4, 6, 8 and 24 hours, i.e., 9 time points in total (N=3/time point), using semi-serial bleeding for plasma.
For both intravenous and oral routes, the mice were restrained manually at the designated time points, with ca. 110 μL of blood being taken into K2EDTA tubes via the facial vein. Blood samples were put on ice and centrifuged to obtain plasma samples from which the concentration at each time point was measured by LC-MS/MS.

SMILES | concentration at 0.083 h
C=C(CC(=O)OC1C(C)(C)CC1(C)C)C(=O)OCC(=O)O [Example 169, 2-((2-methylene-4-oxo-4-(2,2,4,4-tetramethylcyclobutoxy)butanoyl)oxy) acetic acid] | 37800 ng/mL
C=C(CC(=O)O[C@H](C)CCCCCC)C(=O)OCc1nn[nH]n1 [Example 161, (R)-1-((2H-tetrazol-5-yl)methyl) 4-(octan-2-yl) 2-methylenesuccinate] | 7020 ng/mL

Same assay, conditions: male, C57BL/6, mouse, plasma, po, 100 mg/kg, plasma, male C57BL/6 mice, oral gavage 100 mg/kg, 0.25 h; read-out: Parent compound concentrations following oral administration, Time 0.25 h

SMILES | concentration at 0.25 h
C=C(CC(=O)OC1C(C)(C)CC1(C)C)C(=O)OCC(=O)O [Example 169, 2-((2-methylene-4-oxo-4-(2,2,4,4-tetramethylcyclobutoxy)butanoyl)oxy) acetic acid] | 9880 ng/mL
C=C(CC(=O)O[C@H](C)CCCCCC)C(=O)OCc1nn[nH]n1 [Example 161, (R)-1-((2H-tetrazol-5-yl)methyl) 4-(octan-2-yl) 2-methylenesuccinate] | 4340 ng/mL

Same assay, conditions: male, C57BL/6, mouse, plasma, po, 100 mg/kg, plasma, male C57BL/6 mice, oral gavage 100 mg/kg, 0.5 h; read-out: Parent compound concentrations following oral administration, Time 0.5 h

SMILES | concentration at 0.5 h
C=C(CC(=O)OC1C(C)(C)CC1(C)C)C(=O)OCC(=O)O [Example 169, 2-((2-methylene-4-oxo-4-(2,2,4,4-tetramethylcyclobutoxy)butanoyl)oxy) acetic acid] | 4600 ng/mL
C=C(CC(=O)O[C@H](C)CCCCCC)C(=O)OCc1nn[nH]n1 [Example 161, (R)-1-((2H-tetrazol-5-yl)methyl) 4-(octan-2-yl) 2-methylenesuccinate] | 1900 ng/mL

Same assay, conditions: male, C57BL/6, mouse, plasma, po, 100 mg/kg, plasma, male C57BL/6 mice, oral gavage 100 mg/kg, 1 h; read-out: Parent compound concentrations following oral administration, Time 1 h

SMILES | concentration at 1 h
C=C(CC(=O)OC1C(C)(C)CC1(C)C)C(=O)OCC(=O)O [Example 169, 2-((2-methylene-4-oxo-4-(2,2,4,4-tetramethylcyclobutoxy)butanoyl)oxy) acetic acid] | 1750 ng/mL
C=C(CC(=O)O[C@H](C)CCCCCC)C(=O)OCc1nn[nH]n1 [Example 161, (R)-1-((2H-tetrazol-5-yl)methyl) 4-(octan-2-yl) 2-methylenesuccinate] | 1260 ng/mL

Same assay, conditions: male, C57BL/6, mouse, plasma, po, 100 mg/kg, plasma, male C57BL/6 mice, oral gavage 100 mg/kg, 2 h; read-out: Parent compound concentrations following oral administration, Time 2 h

SMILES | concentration at 2 h
C=C(CC(=O)OC1C(C)(C)CC1(C)C)C(=O)OCC(=O)O [Example 169, 2-((2-methylene-4-oxo-4-(2,2,4,4-tetramethylcyclobutoxy)butanoyl)oxy) acetic acid] | 971 ng/mL
C=C(CC(=O)O[C@H](C)CCCCCC)C(=O)OCc1nn[nH]n1 [Example 161, (R)-1-((2H-tetrazol-5-yl)methyl) 4-(octan-2-yl) 2-methylenesuccinate] | 727 ng/mL

Same assay, conditions: male, C57BL/6, mouse, plasma, po, 100 mg/kg, plasma, male C57BL/6 mice, oral gavage 100 mg/kg, 4 h; read-out: Parent compound concentrations following oral administration, Time 4 h

SMILES | concentration at 4 h
C=C(CC(=O)OC1C(C)(C)CC1(C)C)C(=O)OCC(=O)O [Example 169, 2-((2-methylene-4-oxo-4-(2,2,4,4-tetramethylcyclobutoxy)butanoyl)oxy) acetic acid] | 215 ng/mL
C=C(CC(=O)O[C@H](C)CCCCCC)C(=O)OCc1nn[nH]n1 [Example 161, (R)-1-((2H-tetrazol-5-yl)methyl) 4-(octan-2-yl) 2-methylenesuccinate] | 186 ng/mL

Same assay, conditions: male, C57BL/6, mouse, plasma, po, 100 mg/kg, plasma, male C57BL/6 mice, oral gavage 100 mg/kg, 6 h; read-out: Parent compound concentrations following oral administration, Time 6 h

SMILES | concentration at 6 h
C=C(CC(=O)OC1C(C)(C)CC1(C)C)C(=O)OCC(=O)O [Example 169, 2-((2-methylene-4-oxo-4-(2,2,4,4-tetramethylcyclobutoxy)butanoyl)oxy) acetic acid] | 57 ng/mL
C=C(CC(=O)O[C@H](C)CCCCCC)C(=O)OCc1nn[nH]n1 [Example 161, (R)-1-((2H-tetrazol-5-yl)methyl) 4-(octan-2-yl) 2-methylenesuccinate] | 108 ng/mL

Same assay, conditions: male, C57BL/6, mouse, plasma, po, 100 mg/kg, plasma, male C57BL/6 mice, oral gavage 100 mg/kg, 8 h; read-out: Parent compound concentrations following oral administration, Time 8 h

SMILES | concentration at 8 h
C=C(CC(=O)OC1C(C)(C)CC1(C)C)C(=O)OCC(=O)O [Example 169, 2-((2-methylene-4-oxo-4-(2,2,4,4-tetramethylcyclobutoxy)butanoyl)oxy) acetic acid] | 7.7 ng/mL
C=C(CC(=O)O[C@H](C)CCCCCC)C(=O)OCc1nn[nH]n1 [Example 161, (R)-1-((2H-tetrazol-5-yl)methyl) 4-(octan-2-yl) 2-methylenesuccinate] | 16 ng/mL

Same assay, conditions: male, C57BL/6, mouse, plasma, po, 100 mg/kg, plasma, male C57BL/6 mice, oral gavage 100 mg/kg, 24 h; read-out: Parent compound concentrations following oral administration, Time 24 h

SMILES | concentration at 24 h
C=C(CC(=O)OC1C(C)(C)CC1(C)C)C(=O)OCC(=O)O [Example 169, 2-((2-methylene-4-oxo-4-(2,2,4,4-tetramethylcyclobutoxy)butanoyl)oxy) acetic acid] | < 0.8 ng/mL
C=C(CC(=O)O[C@H](C)CCCCCC)C(=O)OCc1nn[nH]n1 [Example 161, (R)-1-((2H-tetrazol-5-yl)methyl) 4-(octan-2-yl) 2-methylenesuccinate] | < 4 ng/mL

System: not listed separately
Assay: Mouse pharmacokinetic study, intravenous dosing
Type: in vivo
Settings: male, C57BL/6, mouse, iv; plasma, 10 mg/kg i.v., time 0.05 h; read-out: Parent compound concentration following intravenous administration
Summary of the method: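 Oral arm: 100 mg/kg gavage in 5% DMSO with 0.5% HPMC/0.1% Tween 80, blood from 5 min to 24 h. Intravenous arm: 10 mg/kg tail-vein injection in 10% DMSO with HP-β-CD, blood from 3 min to 8 h. Male C57BL/6 mice; LC-MS/MS on plasma.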

SMILES | concentration at 0.05 h
C=C(CC(=O)OC1C(C)(C)CC1(C)C)C(=O)OCC(=O)O [Example 169, 2-((2-methylene-4-oxo-4-(2,2,4,4-tetramethylcyclobutoxy)butanoyl)oxy) acetic acid] | 15600 ng/mL
C=C(CC(=O)O[C@H](C)CCCCCC)C(=O)OCc1nn[nH]n1 [Example 161, (R)-1-((2H-tetrazol-5-yl)methyl) 4-(octan-2-yl) 2-methylenesuccinate] | 8890 ng/mL

Same assay, conditions: male, C57BL/6, mouse, iv; plasma, 10 mg/kg i.v., time 0.133 h; read-out: Parent compound concentration following intravenous administration

SMILES | concentration at 0.133 h
C=C(CC(=O)OC1C(C)(C)CC1(C)C)C(=O)OCC(=O)O [Example 169, 2-((2-methylene-4-oxo-4-(2,2,4,4-tetramethylcyclobutoxy)butanoyl)oxy) acetic acid] | 6430 ng/mL
C=C(CC(=O)O[C@H](C)CCCCCC)C(=O)OCc1nn[nH]n1 [Example 161, (R)-1-((2H-tetrazol-5-yl)methyl) 4-(octan-2-yl) 2-methylenesuccinate] | 2380 ng/mL

Same assay, conditions: male, C57BL/6, mouse, iv; plasma, 10 mg/kg i.v., time 0.25 h; read-out: Parent compound concentration following intravenous administration

SMILES | concentration at 0.25 h
C=C(CC(=O)OC1C(C)(C)CC1(C)C)C(=O)OCC(=O)O [Example 169, 2-((2-methylene-4-oxo-4-(2,2,4,4-tetramethylcyclobutoxy)butanoyl)oxy) acetic acid] | 2800 ng/mL
C=C(CC(=O)O[C@H](C)CCCCCC)C(=O)OCc1nn[nH]n1 [Example 161, (R)-1-((2H-tetrazol-5-yl)methyl) 4-(octan-2-yl) 2-methylenesuccinate] | 846 ng/mL

Same assay, conditions: male, C57BL/6, mouse, iv; plasma, 10 mg/kg i.v., time 0.5 h; read-out: Parent compound concentration following intravenous administration

SMILES | concentration at 0.5 h
C=C(CC(=O)OC1C(C)(C)CC1(C)C)C(=O)OCC(=O)O [Example 169, 2-((2-methylene-4-oxo-4-(2,2,4,4-tetramethylcyclobutoxy)butanoyl)oxy) acetic acid] | 516 ng/mL
C=C(CC(=O)O[C@H](C)CCCCCC)C(=O)OCc1nn[nH]n1 [Example 161, (R)-1-((2H-tetrazol-5-yl)methyl) 4-(octan-2-yl) 2-methylenesuccinate] | 343 ng/mL

Same assay, conditions: male, C57BL/6, mouse, iv; plasma, 10 mg/kg i.v., time 1 h; read-out: Parent compound concentration following intravenous administration

SMILES | concentration at 1 h
C=C(CC(=O)OC1C(C)(C)CC1(C)C)C(=O)OCC(=O)O [Example 169, 2-((2-methylene-4-oxo-4-(2,2,4,4-tetramethylcyclobutoxy)butanoyl)oxy) acetic acid] | 8.6 ng/mL
C=C(CC(=O)O[C@H](C)CCCCCC)C(=O)OCc1nn[nH]n1 [Example 161, (R)-1-((2H-tetrazol-5-yl)methyl) 4-(octan-2-yl) 2-methylenesuccinate] | 90 ng/mL

Same assay, conditions: male, C57BL/6, mouse, iv; plasma, 10 mg/kg i.v., time 2 h; read-out: Parent compound concentration following intravenous administration

SMILES | concentration at 2 h
C=C(CC(=O)OC1C(C)(C)CC1(C)C)C(=O)OCC(=O)O [Example 169, 2-((2-methylene-4-oxo-4-(2,2,4,4-tetramethylcyclobutoxy)butanoyl)oxy) acetic acid] | 2.5 ng/mL
C=C(CC(=O)O[C@H](C)CCCCCC)C(=O)OCc1nn[nH]n1 [Example 161, (R)-1-((2H-tetrazol-5-yl)methyl) 4-(octan-2-yl) 2-methylenesuccinate] | 5.1 ng/mL

Same assay, conditions: male, C57BL/6, mouse, iv; plasma, 10 mg/kg i.v., time 4 h; read-out: Parent compound concentration following intravenous administration

SMILES | concentration at 4 h
C=C(CC(=O)OC1C(C)(C)CC1(C)C)C(=O)OCC(=O)O [Example 169, 2-((2-methylene-4-oxo-4-(2,2,4,4-tetramethylcyclobutoxy)butanoyl)oxy) acetic acid] | 1.3 ng/mL
C=C(CC(=O)O[C@H](C)CCCCCC)C(=O)OCc1nn[nH]n1 [Example 161, (R)-1-((2H-tetrazol-5-yl)methyl) 4-(octan-2-yl) 2-methylenesuccinate] | < 4 ng/mL

Same assay, conditions: male, C57BL/6, mouse, iv; plasma, 10 mg/kg i.v., time 6 h; read-out: Parent compound concentration following intravenous administration

SMILES | concentration at 6 h
C=C(CC(=O)OC1C(C)(C)CC1(C)C)C(=O)OCC(=O)O [Example 169, 2-((2-methylene-4-oxo-4-(2,2,4,4-tetramethylcyclobutoxy)butanoyl)oxy) acetic acid] | < 0.8 ng/mL
C=C(CC(=O)O[C@H](C)CCCCCC)C(=O)OCc1nn[nH]n1 [Example 161, (R)-1-((2H-tetrazol-5-yl)methyl) 4-(octan-2-yl) 2-methylenesuccinate] | < 4 ng/mL

Same assay, conditions: male, C57BL/6, mouse, iv; plasma, 10 mg/kg i.v., time 8 h; read-out: Parent compound concentration following intravenous administration

SMILES | concentration at 8 h
C=C(CC(=O)OC1C(C)(C)CC1(C)C)C(=O)OCC(=O)O [Example 169, 2-((2-methylene-4-oxo-4-(2,2,4,4-tetramethylcyclobutoxy)butanoyl)oxy) acetic acid] | < 0.8 ng/mL
C=C(CC(=O)O[C@H](C)CCCCCC)C(=O)OCc1nn[nH]n1 [Example 161, (R)-1-((2H-tetrazol-5-yl)methyl) 4-(octan-2-yl) 2-methylenesuccinate] | < 4 ng/mL
